{"source": "patent US7429396B2", "about": "“Antifungal composition, its fungicidal effect on pathogenic dermatophytes, and process for inhibiting growth of fungi” (Bio-Botanica, Inc., priority 2003, dated 2008)", "key": {"[1]": {"tested_on": "all microorganisms tested", "test": "Agar/broth dilution, inhibition of all microorganisms tested (Example 5)", "assay_type": "cell-based", "procedure": "The Agar Dilution susceptibility method was used to test the effectiveness of the antimicrobial composition of Example 1. The organisms used were S. aureus ATCC 29213, E. coli ATCC 25922, S. typhimurium ATCC 14028, K. pneumoniae ATCC 10031, P. aeruginosa ATCC 27853, C. albicans ATCC 10231, and M. smegmatis ATCC 14468. The organisms were maintained on Tryptic Soy Agar (TSA) slants. For each week, the organisms were cultured in 10 ml of Tryptic Soy Broth (TSB). After incubation at 37° C. for 17 hours (48 hours for M. smegmatis), the organism suspensions were diluted with 10 ml of sterile saline as shown in Table 4. The mold Aspergillus niger was sustained on a Sabouraud Dextrose Agar slant. […]\nThe sample plates for the bacteria and yeast were prepared as follows: • Prepare 10 ml tubes of TSA and allow to cool to 50° C., • Add the calculated amount of the preservative or antimicrobial agent to 100 μl dimethylsulfoxide (DMSO) to achieve the specified concentration per ml TSA when 100 μl of the DMSO solution are added to a test tube containing 10 ml of TSA, • Vortex to homogenize the mixture in TSA, • Pour TSA and the preservative or antimicrobial agent into a properly labeled Petri dish, • Allow to cool overnight at room temperature. […]\nThe results for the bacteria and yeast were scored in relation to the growth present on the positive control plate. […]"}, "[2]": {"tested_on": "Aspergillus niger ATCC 16404", "test": "Macro-dilution broth susceptibility method (Example 6)", "assay_type": "cell-based", "procedure": "The mold Aspergillus niger ATCC 16404 was selected for the antifungal testing and maintained on Sabouraud Dextrose Agar. Aspergillus niger is a mold that commonly causes opportunistic infections in humans. Spores are prevalent in soil and on decaying organic matter. Aspergillus niger is also a common cause of contamination in products. The organism was cultured in 10 ml of Tryptic Soy Broth for 7 days at 22° C. After incubation, 1 ml of mold culture was added to 10 ml of 0.1% Tween 80 solution in sterile saline to achieve a spore concentration of 0.5 McFarland (1×10^8 spores/ml). This concentration was determined by visual comparison to a 0.5 McFarland standard. […]\nThe final concentration of mold spores in each sample was 1×10^4-1×10^5 spores/ml. The prepared tubes of TSB were incubated at 37° C. for 5 days, and the results recorded at 3 and 5 days. […]\nThe results were scored in relation to the growth present in the negative control tube. […] Partial activity (P) was recorded when the sample tube of TSB was less turbid than the control tube, and now growth (I) was recorded when there was total inhibition and the broth in the tube appeared clear. When a result of (I) was scored, the MIC was established by performing the appropriate dilutions."}}}
{"smiles": "OCCc1ccccc1", "note": "[Phenylethyl Alcohol]", "values": [{"measurement": "MIC capable of inhibiting all the tested organisms", "setting": "[1]", "result": 6.0, "unit": "μl/ml"}, {"measurement": "growth score", "setting": "[2]; 2.5 μl/ml", "result": "I"}, {"measurement": "Minimum Inhibitory Concentration (MIC)", "setting": "[2]; macro-dilution broth, Example 6", "result": 2.5, "unit": "μl/ml"}]}
